# Like-named read-outs stand apart in the source and are kept apart here.
# Legend:
# Type in all cases: biochemical
# [1] = biological target: T1, homoserine transsuccinylase (HTS) of W3110 strain (wild-type) (Escherichia coli, UniProt P07623); assay: HTS activity in crude enzyme extract in the presence of inhibitors, W3110 (wild strain); details: no addition 22.3
# T1 construct: The HTS activity in the crude enzyme extract was measured; endogenous in cells; host or cells: E. coli W3110 (wild strain), desalted crude enzyme extract
# Method: (§1) In order to confirm the effect of the metJ deletion by the recombination, a crude enzyme extract was prepared from the cells, and the activities of HTS and cystathionine synthase were measured. The W3110 strain and the WΔJ strain were each inoculated to 2 ml of LB medium, and cultured at 37° C. overnight. 1 ml of the medium was centrifuged at 5,000 rpm for 10 minutes, and the cells were washed twice with 0.9% saline. The obtained cell were suspended in 1 ml of 0.9% saline, 0.5 ml of which was inoculated to 50 ml of Davis-Mingioli minimal medium (Davis B. D., and Mingioli, E. S., J. Bacteriol., 60, 17-28 (1950)) containing 5 mM L-methionine. The cells were cultured at 37° C. for 24 hours, then the medium was centrifuged at 8,000 rpm for 10 minutes, and the cells were washed twice with 0.9% saline. The cells were suspended in 3 ml of 50 mM potassium phosphate buffer (pH 7.5) containing 1 mM dithiothreitol. This suspension was subjected to a cell disruption treatment at 4° C. with a power of 150 W for 5 minutes by using an ultrasonicator (Kubota Co.). The sonicated suspension was centrifuged at 15,000 rpm for 30 minutes, and the supernatant was desalted in a Sephadex G-50 column (Pharmacia) to obtain a crude enzyme extract. The HTS activity and the cystathionine synthase activity in the crude enzyme extract were measured.
# (§2) As for the HTS activity, 5 μl of the crude enzyme extract was added to a reaction mixture comprising 0.1 M potassium phosphate (pH 7.5), 1 mM succinyl-coenzyme A (Sigma), 0.2 nM DL-[^14C]homoserine (Muromachi Chemical Industry), and 0.2 mM L-homoserine to obtain a volume of 50 μl, and allowed to react at 30° C. for 10 minutes. 1 μl of the reaction mixture was spotted on a cellulose plate (Merck), and developed with a mixed solvent containing acetone, butanol, water, and diethylamine at a ratio of 10:10:5:2. After the plate was air-dried, autoradiography was performed by using an image analyzer (Fuji Photo Film).
# (§3) The cells were washed twice with 1 ml of 0.9% saline, and suspended in 1 ml of 0.9% saline, 0.5 ml of which was inoculated to 50 ml of minimal medium and cultured at 37° C. for one day. The medium was centrifuged at 8,000 rpm for 10 minutes, and the cells were washed twice with 1 ml of 0.9% saline. The obtained cells were suspended in 3 ml of 50 mM potassium phosphate buffer (pH 7.5) containing 1 mM dithiothreitol, and a crude enzyme extract was obtained in the same manner as in Example 1. The HTS activity in the crude enzyme extract was measured with the reaction composition mentioned in Example 1 in the presence of an inhibitor.
# [2] = biological target: T2, HTS derived from MM resistant strain WMM9 (arginine 27 changed to cysteine) (Escherichia coli, UniProt P07623, R27C); details: for HTS activity in the presence of inhibitor: WMM9, no addition 5.0; for Inhibition of HTS activity (in words): WMM9 strain, compared with wild strain
# T2 construct: The HTS activity in the crude enzyme extract was measured; endogenous in cells; host or cells: E. coli WMM9 (spontaneous MM-resistant mutant of W3110), crude enzyme extract
# Method: as §1, §2
# (§4) Chromosomal DNA was prepared from these resistant strains. PCR was performed by using each chromosomal DNA as a template and primers having the sequences represented as SEQ ID NOS: 21 and 22 to amplify the metA gene. The nucleotide sequence of each amplification fragment was determined by using primers for amplification of which nucleotide sequences are represented as SEQ ID NOS: 21 and 22, and primers having the sequences represented as SEQ ID NOS: 23 and 24.
# as §3
# [3] = biological target: T3, HTS derived from MM resistant strain WMM5 (proline 298 changed to leucine) (Escherichia coli, UniProt P07623, P298L); details: for HTS activity in the presence of inhibitor: WMM5, no addition 4.5; for Inhibition of HTS activity (in words): WMM5 strain, compared with wild strain
# T3 construct: The HTS activity in the crude enzyme extract was measured; endogenous in cells; host or cells: E. coli WMM5 (spontaneous MM-resistant mutant of W3110), crude enzyme extract
# Method: as §1, §2, §4, §3
# [4] = biological target: T4, HTS derived from MM resistant strain WMM4 (296th isoleucine changed to serine) (Escherichia coli, UniProt P07623, I296S); details: for HTS activity in the presence of inhibitor: WMM4, no addition 4.5; for Inhibition of HTS activity (in words): WMM4 strain, compared with wild strain
# T4 construct: The HTS activity in the crude enzyme extract was measured; endogenous in cells; host or cells: E. coli WMM4 (spontaneous MM-resistant mutant of W3110), crude enzyme extract
# Method: as §1, §2, §4, §3
# [5] = biological target: T5, HTS derived from MM resistant strain WMM7 (IS2 insertion, proline 298 and subsequent residues changed) (Escherichia coli, UniProt P07623); details: no addition 0.0 (activity undetectable)
# T5 construct: The HTS activity in the crude enzyme extract was measured; endogenous in cells; host or cells: E. coli WMM7 (MM-resistant mutant of W3110 with IS2 in metA), crude enzyme extract
# Method: as §1, §2, §4, §3
# T5 sequence (P07623 other isoform, or with tags, fused parts or gaps, stated change not applied): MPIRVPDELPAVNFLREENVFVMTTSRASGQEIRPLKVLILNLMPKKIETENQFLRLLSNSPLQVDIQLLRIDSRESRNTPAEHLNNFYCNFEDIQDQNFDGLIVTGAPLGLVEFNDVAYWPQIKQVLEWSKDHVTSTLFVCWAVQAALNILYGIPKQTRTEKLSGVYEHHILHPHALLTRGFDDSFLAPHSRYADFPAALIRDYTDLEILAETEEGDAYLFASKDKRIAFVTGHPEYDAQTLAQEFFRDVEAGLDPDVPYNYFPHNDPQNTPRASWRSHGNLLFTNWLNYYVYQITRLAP
# T2 sequence (P07623 whole entry R27C): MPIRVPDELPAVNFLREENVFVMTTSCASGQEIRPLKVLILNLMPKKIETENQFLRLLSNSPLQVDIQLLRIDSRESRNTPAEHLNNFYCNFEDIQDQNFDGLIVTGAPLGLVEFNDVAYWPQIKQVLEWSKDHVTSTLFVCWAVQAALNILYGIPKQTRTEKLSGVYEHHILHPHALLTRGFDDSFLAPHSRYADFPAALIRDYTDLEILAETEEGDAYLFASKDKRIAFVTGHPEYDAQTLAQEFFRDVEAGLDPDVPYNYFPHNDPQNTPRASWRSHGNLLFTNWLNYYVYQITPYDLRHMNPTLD
# T3 sequence (P07623 whole entry P298L): as the sequence (P07623 whole entry R27C) above, with C27R, P298L counted along it
# T4 sequence (P07623 whole entry I296S): as the sequence (P07623 whole entry R27C) above, with C27R, I296S counted along it
# T1 sequence (P07623 whole entry): as the sequence (P07623 whole entry R27C) above, with C27R counted along it
Compound,HTS activity in the presence of inhibitor ([1]; 0.1 mM inhibitor) [mmol/min/mg protein],HTS activity in the presence of inhibitor ([1]; 1 mM inhibitor) [mmol/min/mg protein],HTS activity in the presence of inhibitor ([2]; 0.1 mM inhibitor) [mmol/min/mg protein],HTS activity in the presence of inhibitor ([2]; 1 mM inhibitor) [mmol/min/mg protein],Inhibition of HTS activity (in words) [2],HTS activity in the presence of inhibitor ([3]; 0.1 mM inhibitor) [mmol/min/mg protein],HTS activity in the presence of inhibitor ([3]; 1 mM inhibitor) [mmol/min/mg protein],Inhibition of HTS activity (in words) [3],HTS activity in the presence of inhibitor ([4]; 0.1 mM inhibitor) [mmol/min/mg protein],HTS activity in the presence of inhibitor ([4]; 1 mM inhibitor) [mmol/min/mg protein],Inhibition of HTS activity (in words) [4],HTS activity in the presence of inhibitor ([5]; 0.1 mM inhibitor) [mmol/min/mg protein],HTS activity in the presence of inhibitor ([5]; 1 mM inhibitor) [mmol/min/mg protein]
"CSCCC(C)(N)C(=O)O (racemic) [MM, α-methyl-DL-methionine]",18.6,7.0,4.9,2.7,canceled,4.6,4.8,canceled,4.1,4.6,canceled,0.0,0.0
"CSCC[C@H](N)C(=O)O [Met, L-methionine]",14.3,0.8,2.5,2.2,reduced considerably,4.2,4.0,reduced considerably,4.5,4.0,reduced considerably,0.0,0.0
"C[S+](CC[C@H](N)C(=O)[O-])C[C@H]1O[C@@H](n2cnc3c(N)ncnc32)[C@H](O)[C@@H]1O (stereo partly drawn) [SAM, S-adenosylmethionine]",17.0,3.0,1.1,0.5,hardly canceled,3.6,3.3,tendency of cancellation,4.6,2.6,tendency of cancellation,0.0,0.0

# From patent US7611873B1, “Method for producing L-methionine by fermentation” (priority 1998, dated 2009)
